Experimental data as given in ChEMBL document CHEMBL1201862, “PubChem BioAssay data set” (2004).
Activity calls are given as the source filed them.

What was measured:
HEK293 [1] = assay: SAR analysis of compounds that are cytotoxic to HEK293 - Set 2. [Related pubchem assays (depositor defined):AID1575, AID1578, AID1849, AID2001, AID2333, AID2334, AID2335, AID2337, AID2800]; type: functional, cell-based; settings: Homo sapiens
[2] = target: T1, Nucleotide-binding oligomerization domain-containing protein 2 (Homo sapiens, UniProt Q9HC29); assay: NOD2 inhibitors, SAR follow-up, set 2 (AID 2475); type: functional
Tumor necrosis factor = Tumor necrosis factor (Homo sapiens, UniProt P01375); assay: TNFa-triggered NF-kB activation inhibitors, SAR follow-up, cell-based, set 3 (AID 2801); type: functional
[3] = target: T2, Nucleotide-binding oligomerization domain-containing protein 1 (Homo sapiens, UniProt Q9Y239); assay: SAR analysis of NF-kappaB dependent luciferase using DAP as an inducer - Set 2. [Related pubchem assays (depositor defined):AID1566, AID1575, AID1578, AID1579, AID1849, AID1852, AID2264]; type: functional
T2 sequence (Q9Y239 whole entry): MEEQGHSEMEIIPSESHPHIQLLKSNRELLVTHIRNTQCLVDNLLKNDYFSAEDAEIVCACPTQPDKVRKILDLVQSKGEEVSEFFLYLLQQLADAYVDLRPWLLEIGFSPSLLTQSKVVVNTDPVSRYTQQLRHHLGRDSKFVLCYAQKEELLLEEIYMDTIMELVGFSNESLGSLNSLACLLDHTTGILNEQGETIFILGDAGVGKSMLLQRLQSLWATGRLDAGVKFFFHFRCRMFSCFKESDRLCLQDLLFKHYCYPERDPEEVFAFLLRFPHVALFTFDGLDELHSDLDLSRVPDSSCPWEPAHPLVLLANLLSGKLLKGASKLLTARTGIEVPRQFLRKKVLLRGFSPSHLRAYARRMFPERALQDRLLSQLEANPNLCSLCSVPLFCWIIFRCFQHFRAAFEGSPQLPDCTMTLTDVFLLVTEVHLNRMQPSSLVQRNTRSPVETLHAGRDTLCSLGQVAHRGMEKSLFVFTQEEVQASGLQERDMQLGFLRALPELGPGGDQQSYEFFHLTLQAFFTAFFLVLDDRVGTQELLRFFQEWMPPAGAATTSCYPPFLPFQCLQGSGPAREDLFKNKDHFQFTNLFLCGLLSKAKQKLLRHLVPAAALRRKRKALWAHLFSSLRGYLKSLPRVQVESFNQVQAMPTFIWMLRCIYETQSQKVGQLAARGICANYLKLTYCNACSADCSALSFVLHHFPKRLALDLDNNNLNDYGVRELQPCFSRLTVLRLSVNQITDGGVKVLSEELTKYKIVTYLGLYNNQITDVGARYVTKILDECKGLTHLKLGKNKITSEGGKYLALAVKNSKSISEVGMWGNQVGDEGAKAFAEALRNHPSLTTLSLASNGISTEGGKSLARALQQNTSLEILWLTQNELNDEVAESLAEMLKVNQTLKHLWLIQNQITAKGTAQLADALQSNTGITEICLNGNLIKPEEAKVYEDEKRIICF

[4] = target: T2, Nucleotide-binding oligomerization domain-containing protein 1; assay: SAR analysis of compounds that inhibit NOD1 - Set 2. [Related pubchem assays (depositor defined):AID1566, AID1575, AID1578, AID1849, AID1852, AID2333, AID2335, AID2798]; type: functional
Interleukin-8 [5] = target: T3, Interleukin-8 (Homo sapiens, UniProt P10145); assay: SAR analysis of GM-Tri-DAP induced IL-8 secretion in MCF-7/NOD1 cells - Set 2. [Related pubchem assays (depositor defined):AID1575, AID1578, AID2333]; type: functional, cell-based
T3 sequence (P10145 whole entry): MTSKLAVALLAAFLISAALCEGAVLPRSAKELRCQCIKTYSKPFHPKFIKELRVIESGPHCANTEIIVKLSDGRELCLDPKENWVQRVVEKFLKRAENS

[6] = target: T1, Nucleotide-binding oligomerization domain-containing protein 2; assay: NOD2 signaling inhibitors, analog potency, SAR follow-up, cell-based, set 3 (AID 2799); type: functional
[7] = target: T2, Nucleotide-binding oligomerization domain-containing protein 1; assay: SAR analysis of compounds that inhibit NOD1 - Set 3. [Related pubchem assays (depositor defined):AID1566, AID1575, AID1578, AID1849, AID1852, AID2333, AID2335, AID2466]; type: functional
HEK293 [8] = assay: SAR analysis of compounds that are cytotoxic to HEK293 - Set 3. [Related pubchem assays (depositor defined):AID1575, AID1578, AID1848, AID1849, AID2001, AID2333, AID2334, AID2335, AID2337, AID2469]; type: functional, cell-based; settings: Homo sapiens
Interleukin-8 [9] = target: T3, Interleukin-8; assay: SAR analysis of Tumor necrosis factor alpha (TNF-alpha) induced IL-8 secretion in MCF-7/NOD1 cells - Set 2. [Related pubchem assays (depositor defined):AID1575, AID2250, AID2260]; type: functional, cell-based
Cannabinoid receptor 1 [10] = target: T4, Cannabinoid receptor 1 (Homo sapiens, UniProt P21554); assay: SAR analysis of agonists of the Cannabinoid Receptor 1 using an Image-Based Assay - Set 2. [Related pubchem assays (depositor defined):AID2013, AID2026]; type: functional
Cannabinoid receptor 1 [11] = target: T4, Cannabinoid receptor 1; assay: SAR analysis of antagonists of the Cannabinoid Receptor 1 using an Image-Based Assay - Set 2. [Related pubchem assays (depositor defined):AID2013, AID2026]; type: functional
Cannabinoid receptor 2 [12] = target: T5, Cannabinoid receptor 2 (Homo sapiens, UniProt P34972); assay: SAR analysis of antagonists of the Cannabinoid Receptor 2 using an Image-Based Assay. [Related pubchem assays (depositor defined):AID2013, AID2026]; type: functional
Cannabinoid receptor 2 [13] = target: T5, Cannabinoid receptor 2; assay: SAR analysis of agonists of the Cannabinoid Receptor 2 using an Image-Based Assay. [Related pubchem assays (depositor defined):AID2013, AID2026]; type: functional
[14] = target: T6, G-protein coupled receptor 55 (Homo sapiens, UniProt Q9Y2T6); assay: GPR55 antagonist potency of analogs, SAR follow-up, imaging, U2OS, beta-arrestin-GFP, LPI agonist, set 2 (AID 2820); type: functional
[15] = target: T7, G-protein coupled receptor 35 (Homo sapiens, UniProt Q9HC97); assay: SAR analysis of Antagonists of the GPR35 Receptor using an Image-Based Assay - Set 3. [Related pubchem assays (depositor defined):AID2013, AID2026]; type: functional
[16] = target: T6, G-protein coupled receptor 55; assay: GPR55 antagonists blocking LPI-driven arrestin recruitment, primary screen, imaging, U2OS, beta-arrestin-GFP, LPI agonist (AID 2013); type: functional;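 further: antagonist potency measured as reduced agonist-driven arrestin aggregation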
[17] = target: T7, G-protein coupled receptor 35; assay: SAR analysis of Agonists of the GPR35 Receptor using an Image-Based Assay - Set 2. [Related pubchem assays (depositor defined):AID2013, AID2026]; type: functional
[18] = target: T8, Ubiquitin-conjugating enzyme E2 N (Homo sapiens, UniProt P61088); type: functional
T8 sequence (P61088 whole entry): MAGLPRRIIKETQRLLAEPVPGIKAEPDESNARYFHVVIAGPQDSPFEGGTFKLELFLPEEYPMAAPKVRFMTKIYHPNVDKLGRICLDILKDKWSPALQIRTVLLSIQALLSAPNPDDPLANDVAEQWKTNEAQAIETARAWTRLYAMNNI

[19] = target: T8, Ubiquitin-conjugating enzyme E2 N; type: functional; remark: listed apart in the source
Bcl-2-related protein A1 = target: T9, Bcl-2-related protein A1 (Mus musculus, UniProt Q07440); type: functional;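 further: confirmatory dose–response counterscreen on Bfl-1, used to check hits from a UBC13 polyubiquitin inhibitor campaign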
T9 sequence (Q07440 whole entry): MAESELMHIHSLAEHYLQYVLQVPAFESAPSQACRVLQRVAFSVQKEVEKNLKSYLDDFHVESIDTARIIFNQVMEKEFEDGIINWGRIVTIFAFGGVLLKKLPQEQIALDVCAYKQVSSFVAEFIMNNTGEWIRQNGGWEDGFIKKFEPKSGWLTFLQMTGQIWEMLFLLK

[20] = target: T10, Induced myeloid leukemia cell differentiation protein Mcl-1 (Homo sapiens, UniProt Q07820); type: functional
[21] = target: Intestinal-type alkaline phosphatase (Mus musculus, UniProt P24822); assay: PubChem AID 488785; type: functional
[22] = target: T11, Carboxy-terminal domain RNA polymerase II polypeptide A small phosphatase 1 (Homo sapiens, UniProt Q9GZU7); assay: inhibitors of CTDSP1, concentration-response testing, biochemical assay, absorbance-based, actives from ultra-high-throughput screening (AID 540297); type: functional
T11 sequence (Q9GZU7 whole entry): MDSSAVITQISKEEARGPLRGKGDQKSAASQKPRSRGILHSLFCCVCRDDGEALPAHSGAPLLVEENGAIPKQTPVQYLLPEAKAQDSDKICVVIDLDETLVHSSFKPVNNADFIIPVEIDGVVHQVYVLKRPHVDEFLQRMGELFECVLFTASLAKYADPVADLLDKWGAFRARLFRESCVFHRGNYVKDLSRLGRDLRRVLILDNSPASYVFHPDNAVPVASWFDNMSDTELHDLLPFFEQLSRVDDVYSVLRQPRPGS

cells [23] = type: functional, cell-based
cells [24] = type: functional, cell-based; remark: listed apart in the source
[25] = target: Intestinal-type alkaline phosphatase (Homo sapiens, UniProt P09923); assay: activation of human intestinal alkaline phosphatase – biochemical, dose response (AID 488873); type: functional
Bcl-2-like protein 1 = Bcl-2-like protein 1 (Homo sapiens, UniProt Q07817); assay: BCL-XL inhibitors, dose response, selectivity assay for MCL1 inhibitor project, biochemical, fluorescence polarization, 1536-well (AID 2218)
[26] = target: T10, Induced myeloid leukemia cell differentiation protein Mcl-1; assay: MCL1-BIM BH3 interaction inhibitors, dose response, biochemical, fluorescence polarization, BIM-BH3 peptide, 1536-well (AID 2217)
[27] = target: T12, Alkaline phosphatase, tissue-nonspecific isozyme (Homo sapiens, UniProt P05186); assay: TNAP enzyme inhibition by screening hits, dose response, selectivity assay for mouse IAP inhibitor project, biochemical, human TNAP, uHTS hits (AID 488906); type: functional
T12 sequence (P05186 whole entry): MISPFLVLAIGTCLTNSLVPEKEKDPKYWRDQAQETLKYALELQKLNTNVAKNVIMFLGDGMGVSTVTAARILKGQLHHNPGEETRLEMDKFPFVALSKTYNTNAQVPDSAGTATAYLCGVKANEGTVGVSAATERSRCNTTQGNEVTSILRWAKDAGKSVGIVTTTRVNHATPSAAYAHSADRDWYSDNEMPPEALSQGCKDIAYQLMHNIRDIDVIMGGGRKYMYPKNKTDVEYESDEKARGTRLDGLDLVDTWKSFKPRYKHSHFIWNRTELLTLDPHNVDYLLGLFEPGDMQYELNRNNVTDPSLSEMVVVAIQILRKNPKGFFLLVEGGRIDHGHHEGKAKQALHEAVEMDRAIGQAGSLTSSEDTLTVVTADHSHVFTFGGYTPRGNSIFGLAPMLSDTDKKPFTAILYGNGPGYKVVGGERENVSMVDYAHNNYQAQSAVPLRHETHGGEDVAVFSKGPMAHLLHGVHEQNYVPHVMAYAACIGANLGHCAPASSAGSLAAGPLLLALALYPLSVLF

T1 sequence (Q9HC29 whole entry, the tested form may be a part): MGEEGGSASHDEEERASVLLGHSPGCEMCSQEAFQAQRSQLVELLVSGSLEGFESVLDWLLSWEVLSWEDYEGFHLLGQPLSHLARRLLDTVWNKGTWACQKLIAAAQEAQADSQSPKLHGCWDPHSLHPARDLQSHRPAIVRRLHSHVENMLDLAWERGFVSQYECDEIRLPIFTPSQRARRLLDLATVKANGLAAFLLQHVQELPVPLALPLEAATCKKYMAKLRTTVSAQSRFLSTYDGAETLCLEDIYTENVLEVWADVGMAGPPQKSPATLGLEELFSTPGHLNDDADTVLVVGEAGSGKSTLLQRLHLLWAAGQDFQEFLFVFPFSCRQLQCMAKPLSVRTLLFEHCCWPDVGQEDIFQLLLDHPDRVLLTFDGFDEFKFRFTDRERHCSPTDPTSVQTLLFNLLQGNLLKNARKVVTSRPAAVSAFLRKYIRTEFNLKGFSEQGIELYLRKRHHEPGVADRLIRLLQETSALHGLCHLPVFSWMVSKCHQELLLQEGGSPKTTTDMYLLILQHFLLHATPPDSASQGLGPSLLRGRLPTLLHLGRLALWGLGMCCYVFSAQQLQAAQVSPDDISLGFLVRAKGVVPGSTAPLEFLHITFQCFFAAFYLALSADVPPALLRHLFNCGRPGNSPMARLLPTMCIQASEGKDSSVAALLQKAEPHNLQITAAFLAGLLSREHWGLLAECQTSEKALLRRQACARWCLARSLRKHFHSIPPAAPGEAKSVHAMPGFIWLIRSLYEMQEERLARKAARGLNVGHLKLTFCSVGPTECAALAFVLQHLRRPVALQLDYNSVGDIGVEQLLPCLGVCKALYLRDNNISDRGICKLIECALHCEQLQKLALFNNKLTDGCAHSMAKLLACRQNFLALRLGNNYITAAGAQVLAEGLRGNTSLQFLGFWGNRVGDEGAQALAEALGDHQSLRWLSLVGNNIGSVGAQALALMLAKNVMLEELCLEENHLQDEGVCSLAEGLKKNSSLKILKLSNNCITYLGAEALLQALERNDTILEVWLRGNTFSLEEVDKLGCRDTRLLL
T4 sequence (P21554 whole entry): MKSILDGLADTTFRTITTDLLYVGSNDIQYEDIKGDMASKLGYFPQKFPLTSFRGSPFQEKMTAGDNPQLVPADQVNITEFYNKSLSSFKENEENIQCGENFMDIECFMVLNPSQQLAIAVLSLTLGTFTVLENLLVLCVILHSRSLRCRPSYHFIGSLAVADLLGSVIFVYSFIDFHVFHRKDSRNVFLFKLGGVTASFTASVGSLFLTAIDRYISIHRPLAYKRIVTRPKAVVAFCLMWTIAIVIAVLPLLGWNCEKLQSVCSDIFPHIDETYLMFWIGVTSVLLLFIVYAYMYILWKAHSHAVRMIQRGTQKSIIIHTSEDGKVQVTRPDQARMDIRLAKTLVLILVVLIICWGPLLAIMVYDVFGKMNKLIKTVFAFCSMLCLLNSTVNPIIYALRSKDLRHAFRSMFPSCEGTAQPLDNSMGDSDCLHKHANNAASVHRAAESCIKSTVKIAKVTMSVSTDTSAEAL
T5 sequence (P34972 whole entry): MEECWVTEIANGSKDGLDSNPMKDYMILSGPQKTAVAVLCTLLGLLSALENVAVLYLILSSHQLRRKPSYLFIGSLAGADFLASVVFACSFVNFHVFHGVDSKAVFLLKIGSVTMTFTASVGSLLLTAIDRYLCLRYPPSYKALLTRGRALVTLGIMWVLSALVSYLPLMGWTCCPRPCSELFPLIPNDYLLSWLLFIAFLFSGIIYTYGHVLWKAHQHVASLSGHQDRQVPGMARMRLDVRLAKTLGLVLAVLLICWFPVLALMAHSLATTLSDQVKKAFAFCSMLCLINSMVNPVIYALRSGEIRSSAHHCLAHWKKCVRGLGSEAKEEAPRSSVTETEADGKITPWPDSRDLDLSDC
T7 sequence (Q9HC97 whole entry): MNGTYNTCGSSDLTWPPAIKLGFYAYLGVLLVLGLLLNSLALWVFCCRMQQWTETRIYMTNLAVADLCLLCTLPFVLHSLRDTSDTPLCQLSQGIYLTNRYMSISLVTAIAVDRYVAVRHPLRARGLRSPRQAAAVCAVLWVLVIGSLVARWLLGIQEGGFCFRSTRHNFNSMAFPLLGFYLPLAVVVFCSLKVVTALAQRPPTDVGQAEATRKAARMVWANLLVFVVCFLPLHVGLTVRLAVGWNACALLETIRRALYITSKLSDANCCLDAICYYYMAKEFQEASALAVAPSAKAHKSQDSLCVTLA
T6 sequence (Q9Y2T6 whole entry): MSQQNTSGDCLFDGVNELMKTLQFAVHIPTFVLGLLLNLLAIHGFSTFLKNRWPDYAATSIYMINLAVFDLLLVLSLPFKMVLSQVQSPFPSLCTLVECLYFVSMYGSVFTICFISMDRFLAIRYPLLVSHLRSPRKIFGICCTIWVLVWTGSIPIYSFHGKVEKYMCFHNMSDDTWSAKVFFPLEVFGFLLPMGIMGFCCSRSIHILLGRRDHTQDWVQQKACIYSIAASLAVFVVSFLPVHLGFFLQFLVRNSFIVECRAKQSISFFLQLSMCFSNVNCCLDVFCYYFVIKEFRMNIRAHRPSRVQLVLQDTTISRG
T10 sequence (Q07820 whole entry): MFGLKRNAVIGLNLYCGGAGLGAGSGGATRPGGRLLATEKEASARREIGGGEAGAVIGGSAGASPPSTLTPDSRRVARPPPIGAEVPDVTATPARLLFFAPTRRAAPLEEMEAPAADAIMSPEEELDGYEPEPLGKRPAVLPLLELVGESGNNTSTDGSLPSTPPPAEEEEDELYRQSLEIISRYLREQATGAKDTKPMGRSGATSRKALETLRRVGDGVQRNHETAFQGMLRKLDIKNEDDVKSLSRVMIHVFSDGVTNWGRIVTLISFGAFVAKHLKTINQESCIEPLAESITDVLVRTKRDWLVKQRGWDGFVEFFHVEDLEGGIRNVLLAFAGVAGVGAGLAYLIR
Chain of Intestinal-type alkaline phosphatase (Mus musculus, UniProt P24822) (P24822 whole entry, the tested form may be a part): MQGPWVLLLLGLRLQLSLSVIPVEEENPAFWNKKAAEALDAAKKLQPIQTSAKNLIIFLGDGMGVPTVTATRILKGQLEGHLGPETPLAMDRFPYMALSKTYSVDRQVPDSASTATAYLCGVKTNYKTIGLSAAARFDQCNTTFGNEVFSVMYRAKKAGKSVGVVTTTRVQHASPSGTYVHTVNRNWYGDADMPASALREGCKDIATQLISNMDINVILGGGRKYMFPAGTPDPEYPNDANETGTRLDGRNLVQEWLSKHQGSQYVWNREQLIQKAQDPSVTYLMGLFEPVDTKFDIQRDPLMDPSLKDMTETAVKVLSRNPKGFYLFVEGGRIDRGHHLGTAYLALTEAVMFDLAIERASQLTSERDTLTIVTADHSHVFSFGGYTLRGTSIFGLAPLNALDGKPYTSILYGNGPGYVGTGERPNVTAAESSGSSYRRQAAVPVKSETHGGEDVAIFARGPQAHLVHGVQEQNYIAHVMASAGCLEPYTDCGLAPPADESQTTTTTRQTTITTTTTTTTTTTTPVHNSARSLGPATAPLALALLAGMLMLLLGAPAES
Chain of Tumor necrosis factor (P01375 whole entry, the tested form may be a part): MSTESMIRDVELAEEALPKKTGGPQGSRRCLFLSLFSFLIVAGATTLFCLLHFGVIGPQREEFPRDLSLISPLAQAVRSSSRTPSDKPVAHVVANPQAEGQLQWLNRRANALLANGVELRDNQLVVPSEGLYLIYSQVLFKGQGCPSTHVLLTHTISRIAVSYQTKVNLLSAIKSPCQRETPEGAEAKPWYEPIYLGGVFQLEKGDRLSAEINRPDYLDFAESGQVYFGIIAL
Chain of Intestinal-type alkaline phosphatase (Homo sapiens, UniProt P09923) (P09923 whole entry): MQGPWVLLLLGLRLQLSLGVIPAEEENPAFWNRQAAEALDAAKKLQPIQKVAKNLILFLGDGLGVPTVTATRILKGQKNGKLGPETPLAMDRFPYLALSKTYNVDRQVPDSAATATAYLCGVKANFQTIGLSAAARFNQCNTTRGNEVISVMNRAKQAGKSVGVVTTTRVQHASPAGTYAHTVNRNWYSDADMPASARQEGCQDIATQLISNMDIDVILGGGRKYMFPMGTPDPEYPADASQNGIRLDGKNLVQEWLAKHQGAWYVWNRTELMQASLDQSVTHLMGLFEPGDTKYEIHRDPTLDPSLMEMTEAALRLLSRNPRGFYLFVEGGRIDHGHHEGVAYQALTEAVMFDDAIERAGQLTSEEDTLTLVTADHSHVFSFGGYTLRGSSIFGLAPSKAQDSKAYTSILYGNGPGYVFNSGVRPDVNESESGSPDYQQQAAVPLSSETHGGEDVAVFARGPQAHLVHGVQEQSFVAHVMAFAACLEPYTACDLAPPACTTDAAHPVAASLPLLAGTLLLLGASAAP
Chain of Bcl-2-like protein 1 (Q07817 whole entry): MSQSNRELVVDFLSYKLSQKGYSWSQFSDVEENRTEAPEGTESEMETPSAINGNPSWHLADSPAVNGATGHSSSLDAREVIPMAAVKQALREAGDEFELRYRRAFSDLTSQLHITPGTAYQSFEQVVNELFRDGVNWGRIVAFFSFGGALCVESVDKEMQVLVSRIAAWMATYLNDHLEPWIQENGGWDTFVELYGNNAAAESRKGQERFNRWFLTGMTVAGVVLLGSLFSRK

With `CC(C)n1c(SCCCc2ccccc2)nc2c1c(=O)[nH]c(=O)n2C` the IC50 (HEK293 [1]) was > 20 µM (inactive), the IC50 [2] was 17.6 µM (active) and the IC50 (Tumor necrosis factor) was > 20 µM (inactive). The IC50 [3] was > 25 µM (inactive), the IC50 [4] was 12.3 µM (active) and the IC50 (Interleukin-8 [5]) was > 25 µM (inactive). For the same molecule, the IC50 [6] was > 20 µM (inactive), the IC50 [7] was > 20 µM (inactive) and the IC50 (HEK293 [8]) was > 20 µM (inactive). For the same molecule, the IC50 (Interleukin-8 [9]) was > 25 µM (inactive).

With `CC1=CC(C)(C)N2C(=O)C3(SCC(=O)N3c3ccc(O)cc3)c3cc(C)cc1c32` (stereo not given) the EC50 (Cannabinoid receptor 1 [10]) was > 32 µM (inactive), the IC50 (Cannabinoid receptor 1 [11]) was > 32 µM (inactive) and the IC50 (Cannabinoid receptor 2 [12]) was > 32 µM (inactive). The EC50 (Cannabinoid receptor 2 [13]) was > 32 µM (inactive), the IC50 [14] was 2.72 µM (active) and the IC50 [15] was > 32 µM (inactive). The IC50 [16] was 4.1 µM (active) and the EC50 [17] was > 32 µM (inactive).

With `CC1(C)Cc2c(sc(NC(=O)C(=O)NCC3CCCO3)c2C(N)=O)CO1` (stereo not given) the IC50 [18] was 4.28 µM (active), the IC50 [19] was 2.18 µM (active) and the IC50 (Bcl-2-related protein A1) was > 20 µM (inactive).

In the case of `O=[N+]([O-])c1cc(S(=O)(=O)c2ccc(O)c([N+](=O)[O-])c2)ccc1O`, the IC50 [20] is reported as 2.82 µM (active), the IC50 [21] is reported as 5.39 µM (active) and the IC50 [22] is reported as 3.31 µM (active). For the same molecule, the EC50 (cells [23]) was > 350 µM (not active), the EC50 (cells [24]) was > 350 µM (not active) and the EC50 [25] was > 100 µM (inactive). The IC50 (Bcl-2-like protein 1) was > 109 µM (not active), the IC50 [26] was 12.5 µM (not active) and the IC50 [27] was > 100 µM (inactive).
